In a compilation of properties of binary mixtures (doi:10.1007/s10953-009-9410-7):

Assay: xn = mol fraction of the nth substance listed
Details: 101 kPa

CCCC[n+]1ccn(C)c1.N#C[S-] + CCCCCCO
viscosity [mPa·s]
Details	298.15 K	308.15 K	318.15 K	328.15 K	338.15 K	348.15 K
x2 = 0	51.7	34.9	24.2	16.7	12.7	9.98
x2 = 0.0424	44.4	29.7	21	15.6	–	–
x2 = 0.1505	–	–	17.7	13.3	10.3	8.26
x2 = 0.3093	26.1	18.3	13.5	10.3	–	6.54
x2 = 0.453	18.2	–	9.87	7.65	–	4.92
x2 = 0.5773	13.8	10.2	7.71	6	–	3.88
x2 = 0.6307	12.1	9.01	–	5.39	4.3	3.51
x2 = 0.6962	10.3	7.67	5.87	–	3.67	3.04
x2 = 0.7583	8.77	6.54	4.98	–	3.18	2.65
x2 = 0.8512	6.83	5.15	3.99	–	2.57	2.1
x2 = 0.9102	5.87	–	–	2.69	2.17	1.77

CCCC[n+]1ccn(C)c1.N#C[S-] + CCCCCO
viscosity [mPa·s]
Details	298.15 K	308.15 K	318.15 K	328.15 K	338.15 K	348.15 K
x2 = 0	51.7	34.9	24.2	16.7	–	9.98
x2 = 0.0193	46.9	–	21.9	16.2	12.5	9.88
x2 = 0.1443	34.2	–	17	12.8	9.98	7.97
x2 = 0.2751	26	18.3	13.5	10.4	8.2	–
x2 = 0.3843	20	14.4	10.9	8.49	–	–
x2 = 0.487	15.5	11.4	8.74	6.84	5.48	4.47
x2 = 0.5557	12.7	9.5	–	5.74	4.61	3.78
x2 = 0.616	10.8	8.15	6.63	5.05	–	3.42
x2 = 0.7302	7.74	5.89	4.62	–	3.04	2.54
x2 = 0.7914	6.49	4.97	3.92	3.16	2.6	–
x2 = 0.856	5.38	4.14	3.27	2.63	2.16	1.8
x2 = 0.9135	4.56	–	2.77	2.22	1.81	–

CCCC[n+]1ccn(C)c1.N#C[S-] + CCCCO
viscosity [mPa·s]
Details	298.15 K	308.15 K	318.15 K	328.15 K	338.15 K	348.15 K
x2 = 0	51.7	34.9	24.2	16.7	12.7	9.98
x2 = 0.0911	39.2	26.5	–	14.2	11	8.82
x2 = 0.3317	21.2	15.2	11.5	8.92	7.12	–
x2 = 0.4552	15.3	11.3	8.7	–	5.51	4.51
x2 = 0.5596	–	8.44	–	5.16	–	3.5
x2 = 0.6222	–	7.04	–	4.39	–	3.02
x2 = 0.6834	7.53	–	–	–	3.08	2.59
x2 = 0.79	–	4.12	3.3	2.69	2.24	1.89
x2 = 0.8487	4.37	3.43	2.75	2.25	1.87	1.58
x2 = 0.8975	3.74	2.94	2.36	1.92	1.6	–
x2 = 0.9738	–	2.27	–	1.46	1.2	–

CCCCCCO + CCCC[n+]1ccn(C)c1.N#C[S-]
x1 = 1
Details	viscosity [mPa·s]
298.15 K	4.48
318.15 K	2.55
328.15 K	1.98
348.15 K	1.28

CCCCCO + CCCC[n+]1ccn(C)c1.N#C[S-]
x1 = 1
Details	viscosity [mPa·s]
308.15 K	2.57
318.15 K	2
328.15 K	1.58
338.15 K	1.27
348.15 K	1.03

CCCCO + CCCC[n+]1ccn(C)c1.N#C[S-]
x1 = 1
Details	viscosity [mPa·s]
298.15 K	2.52
308.15 K	1.97
318.15 K	1.56
338.15 K	1.02
